From the supplement of paper PMC10307832

Each cell line was assayed with Cc1cc([C@@H](C)Nc2ccccc2C(=O)O)c2nc(N3CCOCC3)cc(=O)n2c1 [AZD6482] + COc1cccc2cc(-c3nc([C@H]4CC[C@H](C(=O)O)CC4)n4ncnc(N)c34)[nH]c12 [OSI-027] (partner 0.5 µM) (assay: relative viability (nuclei count vs DMSO), 5 days (fraction); higher = more cells survive). Conditions: first compound 8 µM.
Method in brief: (§1)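 Lung cancer cell lines in 1536-well plates were dosed by pin tool the day after seeding, either with one drug alone or with a fixed anchor-drug dose plus five library-drug doses (not always all listed) in √10 steps. After 5 days, cells were fixed and their nuclei stained in one step (final 0.05% Triton X-100, 1% formaldehyde, 1 ug/ml Hoechst), then counted on 4× images. Relative viability is the nuclei count in treated wells divided by that in vehicle wells. Values are medians of duplicate plates.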
Cell Line HCC-44 has a relative viability of 0.296. NCI-H522 showed a relative viability of 0.54. For LU99A, the relative viability was 0.3. Cell Line BEN has a relative viability of 0.299. Cell Line HARA has a relative viability of 0.376. In the case of SW 900, the relative viability is reported as 0.492. In the case of HCC-78, the relative viability is reported as 0.303. NCI-H322M gave a relative viability of 0.414. Work on LCLC-97TM1 yielded a relative viability of 0.312. NCI-H441 was tested, and the relative viability was 0.508. In the case of NCI-H1395, the relative viability is reported as 0.44. For NCI-H1793, the relative viability was 0.16.

What follows are cell lines tested with COc1cc2nc(N3CCCN(C)CC3)nc(NC3CCN(Cc4ccccc4)CC3)c2cc1OC + CS(=O)(=O)CCNCc1ccc(-c2ccc3ncnc(Nc4ccc(OCc5cccc(F)c5)c(Cl)c4)c3c2)o1 [Lapatinib] (partner 2 µM) in the same assay as above. Conditions: first compound 0.2 µM.
Method in brief: as §1
Work on NCI-H727 yielded a relative viability of 0.769. NCI-H1650 was tested, and the relative viability was 0.75. With EBC-1 the relative viability was 0.222. For NCI-H1703, the relative viability was 0.981. NCI-H1993 gave a relative viability of 0.684. For SW 1573, the relative viability was 1.15. With NCI-H838 the relative viability was 0.948. With NCI-H520 the relative viability was 0.892. For NCI-H2126, the relative viability was 0.74. With EMC-BAC-2 the relative viability was 0.908. Work on NCI-H2085 yielded a relative viability of 0.698. Calu-6 showed a relative viability of 1.02. For HCC-366, the relative viability was 1.02. In the case of NCI-H1666, the relative viability is reported as 0.508. NCI-H596 was tested, and the relative viability was 1.1. LK-2 gave a relative viability of 0.983. Cell Line NCI-H2087 has a relative viability of 1.18. SK-MES-1 gave a relative viability of 0.476. Cell Line H3255 has a relative viability of 0.235. Work on COR-L23 yielded a relative viability of 0.848. Work on COR-L 105 yielded a relative viability of 0.395. With LOU-NH91 the relative viability was 0.803. In the case of NCI-H2170, the relative viability is reported as 0.253. NCI-H2405 was tested, and the relative viability was 1.08. In the case of HOP-62, the relative viability is reported as 1.04. Work on HCC-44 yielded a relative viability of 1.01. Work on A549 yielded a relative viability of 1.06. Work on LU99A yielded a relative viability of 0.909. BEN was tested, and the relative viability was 0.721. In the case of HARA, the relative viability is reported as 0.793. For HCC-78, the relative viability was 0.704. Cell Line NCI-H322M has a relative viability of 0.573. LCLC-97TM1 showed a relative viability of 0.875. NCI-H1395 was tested, and the relative viability was 0.987. Cell Line NCI-H1299 has a relative viability of 0.965. Cell Line NCI-H1793 has a relative viability of 0.75.

Same assay, conditions: first compound 0.6325 µM
Cell Line NCI-H727 has a relative viability of 0.901. In the case of NCI-H1650, the relative viability is reported as 0.813. With EBC-1 the relative viability was 0.177. NCI-H1703 showed a relative viability of 0.901. NCI-H1993 was tested, and the relative viability was 0.907. In the case of SW 1573, the relative viability is reported as 1.07. With NCI-H838 the relative viability was 1.11. NCI-H520 gave a relative viability of 0.894. NCI-H2126 was tested, and the relative viability was 0.742. In the case of EMC-BAC-2, the relative viability is reported as 0.881. For NCI-H2085, the relative viability was 0.772. In the case of Calu-6, the relative viability is reported as 0.985. With HCC-366 the relative viability was 1.03. NCI-H1666 was tested, and the relative viability was 0.746. With NCI-H596 the relative viability was 0.563. For LK-2, the relative viability was 0.996. In the case of NCI-H2087, the relative viability is reported as 0.744. With SK-MES-1 the relative viability was 0.433. Work on H3255 yielded a relative viability of 0.273. COR-L23 was tested, and the relative viability was 0.849. COR-L 105 was tested, and the relative viability was 0.424. IA-LM was tested, and the relative viability was 0.888. Work on LOU-NH91 yielded a relative viability of 0.812. With NCI-H2170 the relative viability was 0.28. With NCI-H2405 the relative viability was 1.08. HOP-62 gave a relative viability of 1.05. Work on HCC-44 yielded a relative viability of 0.989. A549 gave a relative viability of 0.897. Cell Line LU99A has a relative viability of 0.93. For BEN, the relative viability was 0.953. Cell Line HARA has a relative viability of 0.86. HCC-78 gave a relative viability of 1.06. NCI-H322M showed a relative viability of 0.642. NCI-H1395 gave a relative viability of 1.08. In the case of NCI-H1299, the relative viability is reported as 0.933. For NCI-H1793, the relative viability was 0.742.

Same assay, conditions: first compound 2 µM
With NCI-H727 the relative viability was 0.838. NCI-H1650 was tested, and the relative viability was 0.915. For EBC-1, the relative viability was 0.18. NCI-H1703 gave a relative viability of 1.05. NCI-H1993 showed a relative viability of 0.834. Cell Line SW 1573 has a relative viability of 1.26. In the case of NCI-H838, the relative viability is reported as 1.13. Work on NCI-H520 yielded a relative viability of 0.92. In the case of NCI-H2126, the relative viability is reported as 0.796. EMC-BAC-2 showed a relative viability of 0.914. For NCI-H2085, the relative viability was 0.798. Work on Calu-6 yielded a relative viability of 1.19. HCC-366 showed a relative viability of 1.12. With NCI-H1666 the relative viability was 0.475. Work on NCI-H596 yielded a relative viability of 1.24. LK-2 showed a relative viability of 1.14. Work on NCI-H2087 yielded a relative viability of 1.08. For SK-MES-1, the relative viability was 0.539. In the case of H3255, the relative viability is reported as 0.258. In the case of COR-L23, the relative viability is reported as 1.1. COR-L 105 showed a relative viability of 0.322. IA-LM gave a relative viability of 1.03. Work on LOU-NH91 yielded a relative viability of 0.731. NCI-H2170 showed a relative viability of 0.254. Cell Line NCI-H2405 has a relative viability of 1.2. HOP-62 showed a relative viability of 1.07. HCC-44 showed a relative viability of 1.05. Cell Line A549 has a relative viability of 1.04. Work on LU99A yielded a relative viability of 1.1. In the case of BEN, the relative viability is reported as 0.94. HARA showed a relative viability of 0.823. With HCC-78 the relative viability was 1.03. Cell Line NCI-H322M has a relative viability of 0.621. For LCLC-97TM1, the relative viability was 1.17. Cell Line NCI-H1395 has a relative viability of 1.29. Cell Line NCI-H1299 has a relative viability of 0.972. For NCI-H1793, the relative viability was 0.855.

Same assay, conditions: first compound 6.325 µM
Cell Line NCI-H727 has a relative viability of 0.543. Cell Line NCI-H1650 has a relative viability of 0.579. With EBC-1 the relative viability was 0.155. Cell Line NCI-H1703 has a relative viability of 0.458. Cell Line NCI-H1993 has a relative viability of 0.751. SW 1573 was tested, and the relative viability was 1.05. With NCI-H838 the relative viability was 0.918. In the case of NCI-H520, the relative viability is reported as 0.3. NCI-H2126 showed a relative viability of 0.732. Work on EMC-BAC-2 yielded a relative viability of 0.891. Work on NCI-H2085 yielded a relative viability of 0.605. In the case of Calu-6, the relative viability is reported as 0.985. For HCC-366, the relative viability was 0.956. NCI-H1666 showed a relative viability of 0.332. For NCI-H596, the relative viability was 0.837. With LK-2 the relative viability was 0.909. NCI-H2087 gave a relative viability of 0.964. In the case of SK-MES-1, the relative viability is reported as 0.483. With H3255 the relative viability was 0.165. Cell Line COR-L23 has a relative viability of 0.92. With COR-L 105 the relative viability was 0.278. With IA-LM the relative viability was 0.669. With LOU-NH91 the relative viability was 0.693. NCI-H2170 showed a relative viability of 0.272. NCI-H2405 gave a relative viability of 0.885. Work on HOP-62 yielded a relative viability of 1. For HCC-44, the relative viability was 1.04. A549 was tested, and the relative viability was 0.827. LU99A was tested, and the relative viability was 0.898. BEN gave a relative viability of 0.721. HARA gave a relative viability of 0.804. HCC-78 gave a relative viability of 0.882. Cell Line NCI-H322M has a relative viability of 0.605. In the case of LCLC-97TM1, the relative viability is reported as 0.836. With NCI-H1395 the relative viability was 0.831. NCI-H1299 was tested, and the relative viability was 0.862. Work on NCI-H1793 yielded a relative viability of 0.664.
